Data set [1] is classed as in vivo. To be noted: SD rats. As for the experimental part: Twenty-four SD rats weighing about 180 g to 200 g were randomly divided into 4 groups, with 6 rats in each group, half of which were male and half were female. The rats were given the corresponding drugs by intragastric administration.
The rats were fasted for 12 hours before administration, but were allowed to drink water freely.
Preparation of test substances: The preparation of test substances was carried out on the workbench in the related art in the preparation room.
Blank blood was collected before administration, and blood was collected at predetermined time points of 0.25 h, 0.5 h, 0.75 h, 1 h, 2 h, 3 h, 4 h, 6 h, 8 h, 10 h, and 24 h after administration. About 0.5 mL of blood was collected and placed in an EDTA-K2 tube, and the plasma was separated by centrifugation and stored at −80° C. The prototype and the metabolite, namely, carebastine, in a plasma sample were detected and analyzed by liquid chromatography-mass spectrometry (LC-MS/MS), and pharmacokinetic parameters were calculated.

The subject of data set [2] is histamine-induced shock in guinea pigs. In words: Histamine-induced shock test in guinea pigs. The settings on record: gavage, equimolar to 1.00 mg/kg ebastine, histamine phosphate i.v. one hour after administration, n = 10; for Time of accelerated respiration: x ± s. The format is in vivo. How it is done: One hour after administration, 0.125 wt. % histamine phosphate saline solution was injected intravenously into lateral sides of hind paws of the guinea pigs at 2 ml/kg. After the injection was completed within 10 s, a stopwatch was used immediately to observe the latency period for the guinea pigs to develop accelerated respiration and collapse with convulsions.

Data set [3] relates to KM mice. The settings on record: for Mortality rate of mice / Number of surviving mice / abnormalities during observation period and in gross anatomical observation: single intragastric; for Mortality rate of mice / Number of surviving mice: 14 days observation; for Number of surviving mice: 10 mice per group; for abnormalities during observation period and in gross anatomical observation: low dose, mice. As for the experimental part:
All drugs were administered by intragastric administration, and the blank control group was administered with an equal volume of 0.5% CMC-Na solution. All animals were fasted for 12 hours before administration, but were allowed to drink water freely.
After administration, the mice were kept and observed for 14 days, and the toxic reactions (such as death) of the mice were observed and recorded every day. After the observation period, all surviving animals were dissected to observe whether there were obvious lesions in each organ.

The nature of data set [4]: Hygroscopicity study. The format is physicochemical. The settings on record: 25° C.±1° C., relative humidity 80%, 24 hours. As for the experimental part:
The preparation of carebastine hydrochloride refers to the description of patent U.S. Pat. No. 6,340,761, and the purity is 99% or more. […] (2) An appropriate amount of the sample was spread flat in the weighing bottle. […] (3) The weighing bottle was opened and placed with the lid under the above constant temperature and humidity conditions for 24 hours. (4) The lid was put on the weighing bottle and the weight was accurately weighed (m3).

The nature of data set [5]: Stability study (influencing factors, HPLC purity). The settings on record: for Purity Day 12 under high temperature / Purity Day 12 under light / Purity Day 0 / Purity Day 12 under high humidity: HPLC; for Purity Day 12 under high temperature: 60° C.; for Purity Day 12 under high humidity: RH80%. The format is physicochemical. The text has this:
Carebastine (Comparative Example 2, Comparative Example 2′), carebastine potassium salt (Example 1), and carebastine p-toluenesulfonate (Example 3, Example 5).
Three samples of each of carebastine (Comparative Example 2), refined carebastine (Comparative Example 2′), carebastine potassium salt (Example 1), carebastine p-toluenesulfonate (Example 3), and carebastine p-toluenesulfonate (Example 5) were weighed and placed in weighing flasks. The samples of each group were placed under high temperature (60° C.), high humidity (RH80%), and light (5000Lux) conditions, and the samples were taken for testing after 12 days. Note: The refined carebastine of Comparative Example 2′ can be prepared by column chromatography of Comparative Example 2 using common technical means in the related art.
Detection method: An appropriate amount of each of the samples was weighed accurately, and is dissolved in acetonitrile and quantitatively diluted to a solution containing about 0.08 mg per 1 ml. The detection was carried out using high performance liquid chromatography, octadecylsilane bonded silica gel as a filler, and water-acetonitrile (1:1) as a mobile phase, under a detection wavelength of 256 nm, column temperature of 35° C., and injection volume of 10 μL. Each sample solution was injected into the liquid chromatograph and the chromatogram was recorded.

[6] abbreviates: high dose (equimolar to 5 g/kg ebastine).
[7] abbreviates: low dose (equimolar to 2.5 g/kg ebastine).

Like-named read-outs stand apart in the source and are kept apart here. Marks after values point to notes of the source that are not given here.

For `CC(C)(C)c1ccc(C(=O)CCCN2CCC(OC(c3ccccc3)c3ccccc3)CC2)cc1` [Comparative Example 1, ebastine], in data set [1] (three female vs three male per group), the “gender differences (AUC and Cmax, female vs male rats)” value is “showed gender differences”. For the same molecule, the “content of the prototype” value in data set [1] (prototype (ebastine) in plasma, single intragastric 10 mg/kg) is on record as “lower than 3 ng/mL”. Further, in data set [2], the Mortality rate was 0/10; the “Time of convulsion and collapse” value was 349* s. The MDT in data set [3] (both, KM, mouse, in vivo, 14 days) was greater than 2500 mg/kg.
Take `CC(C)(C(=O)[O-])c1ccc(C(=O)CCCN2CCC(OC(c3ccccc3)c3ccccc3)CC2)cc1.[K+]` [Example 1, potassium 2-(4-(4-(4-(diphenylmethoxy)piperidin-1-yl)butyryl)phenyl)-2-methylpropanoate]: in data set [4], the “Characteristic description (hygroscopicity)” value is given as “No or almost no hygroscopicity” and the “Weight gain Percentage” value was −0.2%. Besides, in data set [5] (5000Lux, 12 days), the stability under light result is recorded as “slightly reduced” and the “Purity Day 12 under light” value is on record as 97.48%. In addition, in data set [5] (12 days), the “Purity Day 12 under high temperature” value is 98.23% and the “Purity Day 12 under high humidity” value came out at 98.38%. In addition, the “Purity Day 0” value in data set [5] was determined as 98.42%. In addition, in data set [2], the Mortality rate is 0/10; the “Time of convulsion and collapse” value was >600*^▴ s; the “Time of accelerated respiration” value is 294 ± 24.42 s. In data set [3] (setting [6]), the “Mortality rate of mice” value was determined as 20% and the “Number of surviving mice” value is 8. Also, in data set [3] (setting [7]), the “Mortality rate of mice” value is 0 and the “Number of surviving mice” value is given as 10. Besides, the “abnormalities during observation period and in gross anatomical observation” value in data set [3] (14 days) is on record as “no obvious abnormalities were observed”.
In the case of `CC(C)(C(=O)O)c1ccc(C(=O)CCCN2CCC(OC(c3ccccc3)c3ccccc3)CC2)cc1.Cc1ccc(S(=O)(=O)O)cc1` [Example 3, 2-(4-(4-(4-(diphenylmethoxy)piperidin-1-yl)butyryl)phenyl)-2-methylpropanoic acid p-toluenesulfonate], in data set [4], the “Characteristic description (hygroscopicity)” value was “Slightly hygroscopic” and the “Weight gain Percentage” value worked out at 0.3%. Moreover, the “stability under high temperature, high humidity and light conditions” value in data set [5] (12 days) was “stable”. Further, in data set [5] (12 days, p-toluenesulfonate), the “Purity Day 12 under high temperature” value worked out at 99.94% and the “Purity Day 12 under high humidity” value amounted to 99.98%. Moreover, the “Purity Day 12 under light” value in data set [5] (5000Lux, 12 days, p-toluenesulfonate) was 99.91%. Also, the “Purity Day 0” value in data set [5] (p-toluenesulfonate) was found to be 99.99%. Moreover, in data set [2], the Mortality rate is on record as 0/10; the “Time of convulsion and collapse” value is listed as >600*^▴ s; the “Time of accelerated respiration” value is reported as 351 ± 38.16 s. In addition, in data set [3] (setting [6]), the “Mortality rate of mice” value worked out at 10% and the “Number of surviving mice” value is listed as 9. In data set [3] (setting [7]), the “Mortality rate of mice” value worked out at 0 and the “Number of surviving mice” value was 10. In addition, in data set [3] (14 days), the “abnormalities during observation period and in gross anatomical observation” value is listed as “no obvious abnormalities were observed”.

For the origin of these results see patent US20250326720A1, “CAREBASTINE SALT AND USE OF SAME” (priority 2022, published 2025).
